In ChEMBL document CHEMBL1201862, “PubChem BioAssay data set” (2004):
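All cell lines were grown in 96-well plates and treated with compound for 48 hours. GI50 marks 50% less growth.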 Active and inactive are the calls of the source. Rule as the data show it: active = GI50 up to about 1.1 µM and inactive = higher.

How the values were obtained:
Assay in all cases: NCI-60 cell line screen, 48 h
HT-29 = tested on: HT-29
SF-268 = tested on: SF-268
M14 = tested on: M14
SK-MEL-5 = tested on: SK-MEL-5
COLO 205 = tested on: COLO 205
CAKI-1 = tested on: CAKI-1
U-251 = tested on: U-251
T47D = tested on: T47D
HCT-15 = tested on: HCT-15
UACC-62 = tested on: UACC-62
DU-145 = tested on: DU-145
SK-MEL-2 = tested on: SK-MEL-2
SN12C = tested on: SN12C
MDA-MB-231 = tested on: MDA-MB-231
HL-60 = tested on: HL-60
NCI-H522 = tested on: NCI-H522
MOLT-4 = tested on: MOLT-4
RXF 393 = tested on: RXF 393
A498 = tested on: A498

Row | Structure (SMILES) | GI50 (HT-29) | GI50 (SF-268) | GI50 (M14) | GI50 (SK-MEL-5) | GI50 (COLO 205) | GI50 (CAKI-1) | GI50 (U-251) | GI50 (T47D) | GI50 (HCT-15) | GI50 (UACC-62) | GI50 (DU-145) | GI50 (SK-MEL-2) | GI50 (SN12C) | GI50 (MDA-MB-231) | GI50 (HL-60) | GI50 (NCI-H522) | GI50 (MOLT-4) | GI50 (RXF 393) | GI50 (A498)
1 | COC(=O)c1cnc(Cl)cn1 | 54.3 µM (inactive) | 49 µM (inactive) | 53.8 µM (inactive) | 59.2 µM (inactive) | > 100 µM (inactive) | 17.5 µM (inactive) | 34.9 µM (inactive) | 40.3 µM (inactive) | 17.3 µM | 33 µM (inactive) | > 100 µM (inactive) | 48 µM (inactive) | 30.5 µM (inactive) | 71.8 µM (inactive) | 32.7 µM (inactive) | 2.49 µM (inactive) | 41.4 µM (inactive) | – | –
2 | CC(=O)C(C(C)=O)=C1CCCC(O)O1 (stereo not drawn) | > 100 µM (inactive) | > 100 µM (inactive) | > 100 µM (inactive) | > 100 µM (inactive) | > 100 µM (inactive) | – | > 100 µM (inactive) | > 100 µM (inactive) | > 100 µM | > 100 µM (inactive) | > 100 µM (inactive) | – | > 100 µM (inactive) | > 100 µM (inactive) | > 100 µM (inactive) | – | > 100 µM (inactive) | > 100 µM (inactive) | > 100 µM (inactive)
3 | CC1(C)OCN(c2ccc(N3CCOCC3)cc2)Cn2c1nc1ccccc12 | > 100 µM (inactive) | > 100 µM (inactive) | > 100 µM (inactive) | – | > 100 µM (inactive) | – | > 100 µM (inactive) | – | > 100 µM | > 100 µM (inactive) | – | > 100 µM (inactive) | > 100 µM (inactive) | – | 26.4 µM (inactive) | > 100 µM (inactive) | > 100 µM (inactive) | 39.1 µM (inactive) | > 100 µM (inactive)
4 | COc1cccc(N2C(=O)[C@H]3[C@H]4CC(C(C)(C)C)CC[C@H]4c4c([nH]c5ccccc45)[C@H]3C2=O)c1 (stereo partly drawn) | 21.3 µM (inactive) | 27.3 µM (inactive) | 15.1 µM (inactive) | 18 µM (inactive) | 15.5 µM (inactive) | 17.2 µM (inactive) | – | – | 34.6 µM | 14.6 µM (inactive) | – | 20.3 µM (inactive) | 13.4 µM (inactive) | – | 28 µM (inactive) | 19.4 µM (inactive) | 11.9 µM (inactive) | 21.1 µM (inactive) | –
5 | Cc1ccc(NC(=O)C(=O)C2NC(=S)NC2=O)c([N+](=O)[O-])c1 (stereo not drawn) | > 100 µM (inactive) | > 100 µM (inactive) | > 100 µM (inactive) | > 100 µM (inactive) | > 100 µM (inactive) | > 100 µM (inactive) | > 100 µM (inactive) | – | > 100 µM | > 100 µM (inactive) | – | > 100 µM (inactive) | > 100 µM (inactive) | – | > 100 µM (inactive) | > 100 µM (inactive) | > 100 µM (inactive) | > 100 µM (inactive) | > 100 µM (inactive)
6 | CC(=O)c1cc2c3c(c1)c1cc4c(cc1c(=O)n3CC2)OCO4 | 19.4 µM (inactive) | – | 59.7 µM (inactive) | 31 µM (inactive) | 29.6 µM (inactive) | 20.8 µM (inactive) | 27 µM (inactive) | – | 19.8 µM | 17.3 µM (inactive) | – | > 100 µM (inactive) | 16.8 µM (inactive) | – | 39.3 µM (inactive) | 7.21 µM (inactive) | 2.92 µM (inactive) | 32.4 µM (inactive) | –
7 | CC1(Cl)C(=O)NC(=O)N([C@H]2C[C@H](O)[C@@H](CO)O2)C1N=[N+]=[N-] (stereo partly drawn) | > 100 µM (inactive) | > 100 µM (inactive) | > 100 µM (inactive) | > 100 µM (inactive) | > 100 µM (inactive) | > 100 µM (inactive) | > 100 µM (inactive) | – | > 100 µM | > 100 µM (inactive) | – | > 100 µM (inactive) | > 100 µM (inactive) | – | > 100 µM (inactive) | > 100 µM (inactive) | > 100 µM (inactive) | > 100 µM (inactive) | > 100 µM (inactive)
8 | COc1c(C2=NC(C(C)C)CO2)ccc2ccccc12 (stereo not drawn) | 24.3 µM (inactive) | 29.6 µM (inactive) | 63.5 µM (inactive) | 14.2 µM (inactive) | 41.2 µM (inactive) | 61.5 µM (inactive) | – | – | 5.11 µM | 49 µM (inactive) | – | 65.5 µM (inactive) | 64.3 µM (inactive) | – | 14.6 µM (inactive) | 28.2 µM (inactive) | 14.2 µM (inactive) | 16.4 µM (inactive) | 27.3 µM (inactive)
9 | CCN(CC)CCC(=O)Nc1ccc2c(c1)C(=O)c1ccc(NC(=O)CCN(CC)CC)cc1C2=O | 2.59 µM (inactive) | 5.62 µM (inactive) | 13.8 µM (inactive) | 7.08 µM (inactive) | 3.28 µM (inactive) | 4.43 µM (inactive) | 9.18 µM (inactive) | – | 2.97 µM | 10.4 µM (inactive) | – | 4.79 µM (inactive) | 2.84 µM (inactive) | – | 4.23 µM (inactive) | 11.2 µM (inactive) | 2.07 µM (inactive) | 2.11 µM (inactive) | 5.79 µM (inactive)
